Target: T1, recombinant human CETP (Homo sapiens, UniProt P11597)
T1 construct: made in house; host or cells: CHO cells (protein secreted into conditioned medium)
T1 sequence (P11597 18-493): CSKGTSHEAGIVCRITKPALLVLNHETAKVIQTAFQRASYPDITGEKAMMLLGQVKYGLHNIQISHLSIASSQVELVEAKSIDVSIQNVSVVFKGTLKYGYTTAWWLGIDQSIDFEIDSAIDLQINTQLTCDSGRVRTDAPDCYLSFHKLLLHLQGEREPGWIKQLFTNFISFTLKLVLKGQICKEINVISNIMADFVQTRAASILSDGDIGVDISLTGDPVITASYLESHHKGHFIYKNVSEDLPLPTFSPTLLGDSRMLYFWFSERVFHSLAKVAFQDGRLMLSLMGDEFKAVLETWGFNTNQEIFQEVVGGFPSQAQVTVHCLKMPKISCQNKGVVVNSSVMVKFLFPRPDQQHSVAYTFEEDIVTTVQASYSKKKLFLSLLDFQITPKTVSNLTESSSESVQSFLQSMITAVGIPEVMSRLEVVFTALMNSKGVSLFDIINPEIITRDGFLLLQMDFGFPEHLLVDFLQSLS
Assay: CETP in vitro fluorometric assay (Roar Biomedical), cholesterol ester transfer from HDL to LDL
Assay type: biochemical
Conditions: recombinant human CETP from CHO cells; 3 hours at 37° C.; fluorescence ex 485 nm / em 535 nm; compound concentrations between 1 nM and 30 μM; read-out: IC50 values for inhibition of CETP
Description: CETP inhibitory activity of compounds of the present invention can be determined in a fluorometric assay puchased from Roar Biomedical, Inc. (New York, N.Y., USA). […] Recombinant human CETP was partially purified from medium conditioned by CETP expressing CHO cells. In a 384 well format 2.5 μl of compound solution in DMSO was combined with 2 μl of donor solution, 2 μl of acceptor solution and 0.8 μl of recombinant human CETP solution in a total volume of 100 μl with assay buffer and incubated for 3 hours at 37° C. The fluorescence intensity was measured at excitation wavelength of 485 nm and emission wavelength of 535 nm. IC50 values are calculated from dose effect curves from compound concentrations between 1 nM and 30 μM.

Row | Structure (SMILES) | IC50 [nM]
1 | CC(C)c1nc2c(c3c1[C@@H](c1ccc(C(C)(C)O)cc1)OC31CCCC1)[C@@H](O)CC(C)(C)C2 [1(26), (3′R,9′S)-3′-(4-(2-hydroxypropan-2-yl)phenyl)-4′-isopropyl-7′,7′-dimethyl-6′,7′,8′,9′-tetrahydro-3′H-spiro[cyclopentane-1,1′-furo[3,4-c]quinolin]-9′-ol] | 875
2 | CC(C)Cc1ccc([C@H]2OC3(CCCC3)c3c2c(C(C)C)nc2c3[C@@H](O)CC(C)(C)C2)cc1 [1(27), (3′R,9′S)-3′-(4-isobutylphenyl)-4′-isopropyl-7′,7′-dimethyl-6′,7′,8′,9′-tetrahydro-3′H-spiro[cyclopentane-1,1′-furo[3,4-c]quinolin]-9′-ol] | 299
3 | CC1(C)Cc2nc(C3CCC3)c3c(c2[C@@H](O)C1)C1(CCCC1)O[C@@H]3c1ccc(C(F)(F)F)cc1 [1(28), (3′R,9′S)-4′-cyclobutyl-7′,7′-dimethyl-3′-(4-(trifluoromethyl)phenyl)-6′,7′,8′,9′-tetrahydro-3′H-spiro[cyclopentane-1,1′-furo[3,4-c]quinolin]-9′-ol] | 51
4 | CC(C)c1ccc([C@H]2OC3(CCCC3)c3c2c(C2CCCC2)nc2c3[C@@H](O)CC(C)(C)C2)cc1 [1(29), (3′R,9′S)-4′-cyclopentyl-3′-(4-isopropylphenyl)-7′,7′-dimethyl-6′,7′,8′,9′-tetrahydro-3′H-spiro[cyclopentane-1,1′-furo[3,4-c]quinolin]-9′-ol] | 88
5 | CC(C)c1nc2c(c3c1[C@@H](c1ccc(C(F)(F)F)cc1)OC31CCOCC1)[C@@H](O)CC(C)(C)C2 [1(30), (3R,9S)-4-isopropyl-7,7-dimethyl-3-(4-(trifluoromethyl)phenyl)-2′,3′,5′,6,6′,7,8,9-octahydro-3H-spiro[furo[3,4-c]quinoline-1,4′-pyran]-9-ol] | 18
6 | CC1(C)Cc2nc(C3CCCC3)c3c(c2[C@@H](O)C1)C1(CCCC1)O[C@@H]3c1cccc(C(C)(C)C)c1 [1(31), (3′R,9′S)-3′-(3-tert-butylphenyl)-4′-cyclopentyl-7′,7′-dimethyl-6′,7′,8′,9′-tetrahydro-3′H-spiro[cyclopentane-1,1′-furo[3,4-c]quinolin]-9′-ol] | 1070
7 | CC(C)c1nc2c(c3c1[C@@H](c1ccc(C(C)(F)F)cc1)OC31CCCC1)[C@@H](O)CC(C)(C)C2 [1(32), (3′R,9′S)-3′-(4-(1,1-difluoroethyl)phenyl)-4′-isopropyl-7′,7′-dimethyl-6′,7′,8′,9′-tetrahydro-3′H-spiro[cyclopentane-1,1′-furo[3,4-c]quinolin]-9′-ol] | 62
8 | CC(=O)O[C@H]1c2nc(C(C)C)c3c(c2[C@@H](O)CC1(C)C)C1(CCCC1)O[C@@H]3c1ccc(C(F)(F)F)cc1 [1(33), (3′R,6′R,9′S)-9′-hydroxy-4′-isopropyl-7′,7′-dimethyl-3′-(4-(trifluoromethyl)phenyl)-6′,7′,8′,9′-tetrahydro-3′H-spiro[cyclopentane-1,1′-furo[3,4-c]quinoline]-6′-yl acetate] | 229
9 | CC(=O)O[C@@H]1c2nc(C(C)C)c3c(c2[C@@H](O)CC1(C)C)C1(CCCC1)O[C@@H]3c1ccc(C(F)(F)F)cc1 [1(34), (3′R,6′S,9′S)-9′-hydroxy-4′-isopropyl-7′,7′-dimethyl-3′-(4-(trifluoromethyl)phenyl)-6′,7′,8′,9′-tetrahydro-3′H-spiro[cyclopentane-1,1′-furo[3,4-c]quinoline]-6′-yl acetate] | 137
10 | CC(C)c1ccc([C@H]2OC3(CCCC3)c3c2c(C(C)C)nc2c3[C@@H](O)CC3(CCC3)C2)cc1 [1(35), (3′R,9′S)-4′-isopropyl-7′,7′-(propan-1,3-diyl)-3′-(4-(isopropyl)phenyl)-6′,7′,8′,9′-tetrahydro-3′H-spiro[cyclopentane-1,1′-furo[3,4-c]quinolin]-9′-ol] | 52
11 | CC1(C)Cc2nc(C3CCOCC3)c3c(c2[C@@H](O)C1)C1(CCCC1)O[C@@H]3c1ccc(C(C)(C)C)cc1 [1(36), (3′R,9′S)-3′-(4-tert-butylphenyl)-7′,7′-dimethyl-4′-(tetrahydro-2H-pyran-4-yl)-6′,7′,8′,9′-tetrahydro-3′H-spiro[cyclopentane-1,1′-furo[3,4-c]quinolin]-9′-ol] | 74
12 | CCc1nc2c(c3c1[C@@H](c1ccc(C(F)(F)F)cc1)OC31CCCC1)[C@@H](O)CC(C)(C)C2 [1(37), (3′R,9′S)-4′-ethyl-7′,7′-dimethyl-3′-(4-(trifluoromethyl)phenyl)-6′,7′,8′,9′-tetrahydro-3′H-spiro[cyclopentane-1,1′-furo[3,4-c]quinolin]-9′-ol] | 418
13 | CC(C)c1nc2c(c3c1[C@@H](c1cc(F)cc(F)c1)OC31CCCC1)[C@@H](O)CC(C)(C)C2 [1(38), (3′R,9′S)-3′-(3,5-difluorophenyl)-4′-isopropyl-7′,7′-dimethyl-6′,7′,8′,9′-tetrahydro-3′H-spiro[cyclopentane-1,1′-furo[3,4-c]quinolin]-9′-ol] | 3320
14 | CC1(C)Cc2nc(C3CCOCC3)c3c(c2[C@@H](O)C1)C1(CCOCC1)O[C@@H]3c1ccc(C(F)(F)F)cc1 [1(39), (3R,9S)-7,7-dimethyl-4-(tetrahydro-2H-pyran-4-yl)-3-(4-(trifluoromethyl)phenyl)-2′,3′,5′,6,6′,7,8,9-octahydro-3H-spiro[furo[3,4-c]quinoline-1,4′-pyran]-9-ol] | 56
15 | CC(C)c1nc2c(c3c1[C@@H](c1ccc(C4(C)CC4)cc1)OC31CCCC1)[C@@H](O)CC(C)(C)C2 [1(40), (3′R,9′S)-4′-isopropyl-7′,7′-dimethyl-3′-(4-(1-methylcyclopropyl)phenyl)-6′,7′,8′,9′-tetrahydro-3′H-spiro[cyclopentane-1,1′-furo[3,4-c]quinolin]-9′-ol] | 37
16 | CC(C)c1nc2c(c3c1[C@@H](c1cccc(C(F)(F)F)c1)OC31CCCC1)[C@@H](O)CC(C)(C)C2 [1(41), (3′R,9′S)-4′-isopropyl-7′,7′-dimethyl-3′-(3-(trifluoromethyl)phenyl)-6′,7′,8′,9′-tetrahydro-3′H-spiro[cyclopentane-1,1′-furo[3,4-c]quinolin]-9′-ol] | 524
17 | CC(C)c1nc2c(c3c1[C@@H](c1ccc(C(C)(C)C)cc1)OC31CCOCC1)[C@@H](O)CC(C)(C)C2 [1(42), (3R,9S)-3-(4-tert-butylphenyl)-4-isopropyl-7,7-dimethyl-2′,3′,5′,6,6′,7,8,9-octahydro-3H-spiro[furo[3,4-c]quinoline-1,4′-pyran]-9-ol] | 25
18 | CC1(C)Cc2nc(C3CCOCC3)c3c(c2[C@@H](O)C1)C1(CCCC1)O[C@@H]3c1ccc(S(F)(F)(F)(F)F)cc1 [1(43), (3′R,9′S)-7′,7′-dimethyl-4′-(tetrahydro-2H-pyran-4-yl)-3′-(4-(pentafluorosulfanyl)phenyl)-6′,7′,8′,9′-tetrahydro-3′H-spiro[cyclopentane-1,1′-furo[3,4-c]quinolin]-9′-ol] | 22
19 | CC(C)c1nc2c(c3c1[C@@H](c1ccc(C4(C#N)CC4)cc1)OC31CCCC1)[C@@H](O)CC(C)(C)C2 [1(44), 1-(4-((3′R,9′S)-9′-hydroxy-4′-isopropyl-7′,7′-dimethyl-6′,7′,8′,9′-tetrahydro-3′H-spiro[cyclopentane-1,1′-furo[3,4-c]quinoline]-3′-yl)phenyl)cyclopropanecarbonitrile] | 69
20 | CC(C)c1nc2c(c3c1[C@@H](c1ccc(C4CC4)cc1)OC31CCCC1)[C@@H](O)CC(C)(C)C2 [1(45), (3′R,9′S)-3′-(4-cyclopropylphenyl)-4′-isopropyl-7′,7′-dimethyl-6′,7′,8′,9′-tetrahydro-3′H-spiro[cyclopentane-1,1′-furo[3,4-c]quinolin]-9′-ol] | 122
21 | CC(C)c1nc2c(c3c1[C@@H](c1ccc(C(F)(F)F)cc1)OC31CCCC1)[C@@H](O)CC(C)(C)[C@@H]2O [3(1), (3′R,6′S,9′S)-4′-isopropyl-7′,7′-dimethyl-3′-(4-(trifluoromethyl)phenyl)-6′,7′,8′,9′-tetrahydro-3′H-spiro[cyclopentane-1,1′-furo[3,4-c]quinoline]-6′,9′-diol] | 394
22 | CC(C)c1nc2c(c3c1[C@@H](c1ccc(C(F)(F)F)cc1)OC31CCCC1)[C@@H](O)CC(C)(C)C2 [Example 1, (3′R,9′S)-4′-isopropyl-7′,7′-dimethyl-3′-(4-(trifluoromethyl)phenyl)-6′,7′,8′,9′-tetrahydro-3′H-spiro[cyclopentane-1,1′-furo[3,4-c]quinolin]-9′-ol] | 54
23 | CC(C)c1nc2c(c3c1[C@@H](c1ccc(C(F)(F)F)cc1)OC31CCCC1)[C@@H](O)CC(C)(C)[C@H]2O [Example 3, (3′R,6′R,9′S)-4′-isopropyl-7′,7′-dimethyl-3′-(4-(trifluoromethyl)phenyl)-6′,7′,8′,9′-tetrahydro-3′H-spiro[cyclopentane-1,1′-furo[3,4-c]quinoline]-6′,9′-diol] | 20

Reference: patent publication US20120053197A1, “TRICYCLIC PYRIDINE DERIVATIVES, MEDICAMENTS CONTAINING SUCH COMPOUNDS, THEIR USE AND PROCESS FOR THEIR PREPARATION” (BOEHRINGER INGELHEIM INTERNATIONAL GMBH, priority 2010, published 2012)
